From patent EP4603105A1, “PHARMACEUTICAL COMPOSITION CONTAINING CYCLIC COMPOUND HAVING SELECTIVE KRAS INHIBITORY EFFECT AGAINST HRAS AND NRAS” (CHUGAI SEIYAKU KABUSHIKI KAISHA, priority 2022, dated 2024)

Assays:
[1] = molecular target: GDP-bound KRAS wild-type protein (Homo sapiens, UniProt P01116); test: Binding to KRAS by surface plasmon resonance (SPR), dissociation constant KD; settings: Single Cycle Kinetics
How it was run: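 Measured at 30°C: SPR with GDP-loaded, E. coli-expressed biotin-Avi RAS captured (~100–300 RU), ascending 75 s compound injections, HBS pH 7.4 with GDP, MgCl2, 4% DMSO. KD from 1:1 fit.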

[2] = tested on: human lung cancer strain NCI-H441; test: NCI-H441 cell proliferation inhibitory activity (CellTiter-Glo, 4 days); type: cell-based; settings: NCI-H441 cells, 4 days, read-out: NCl-H441 IC50
How it was run: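 Step one: dispense the test compound in serial DMSO dilutions. Step three: add the reagent and measure […].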

[3] = molecular target: GDP-bound NRAS wild-type protein (Homo sapiens, UniProt P01111); test: Binding to NRAS by surface plasmon resonance (SPR), KD and KD ratio to KRAS; settings: ratio of KD for GDP-bound NRAS wild-type protein to KD for KRAS
GDP-bound NRAS wild-type protein, sequence (P01111 whole entry): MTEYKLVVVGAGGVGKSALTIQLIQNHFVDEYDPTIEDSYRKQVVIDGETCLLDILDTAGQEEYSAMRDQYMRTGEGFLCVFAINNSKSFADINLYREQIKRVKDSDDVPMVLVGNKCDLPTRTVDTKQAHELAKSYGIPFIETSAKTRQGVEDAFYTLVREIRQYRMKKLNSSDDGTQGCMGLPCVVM
How it was run: (§1)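 Biotinylated GDP-bound RAS was captured at about 100–300 RU. Running buffer: HBS pH 7.4, 10 mM MgCl2, 10 µM GDP, 1 mM DTT, 0.01% Tween 20, 4% DMSO.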

HRAS wild-type protein = HRAS wild-type protein (Homo sapiens, UniProt P01112); test: Binding to HRAS by surface plasmon resonance (SPR), KD and KD ratio to KRAS; settings: ratio of KD for HRAS wild-type protein to KD for KRAS
HRAS wild-type protein, sequence (P01112 whole entry): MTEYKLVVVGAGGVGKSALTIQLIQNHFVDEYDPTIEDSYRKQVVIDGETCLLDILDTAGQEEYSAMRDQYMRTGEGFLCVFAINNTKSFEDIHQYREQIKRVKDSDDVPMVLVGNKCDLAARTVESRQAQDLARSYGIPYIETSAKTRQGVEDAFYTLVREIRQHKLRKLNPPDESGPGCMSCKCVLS
How it was run: as §1

GDP-bound KRAS wild-type protein, sequence (P01116 1-188 isoform P01116-2): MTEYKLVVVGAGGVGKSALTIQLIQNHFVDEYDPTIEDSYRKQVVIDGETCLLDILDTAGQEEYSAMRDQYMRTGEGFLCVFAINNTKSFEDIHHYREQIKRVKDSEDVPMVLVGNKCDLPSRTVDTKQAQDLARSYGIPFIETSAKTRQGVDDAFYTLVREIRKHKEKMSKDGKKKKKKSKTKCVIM

Structure (SMILES)	Kd [1]	IC50 [2]	NRAS /KRAS [3]	HRAS /KRAS (HRAS wild-type protein)
CCCO[C@@H]1C[C@H]2C(=O)NC3(CC(C)(C)C3)C(=O)N(C)[C@@H](C3CCCC3)C(=O)N(C)[C@H](C(=O)N(C)CC)CC(=O)N(C)[C@@H](COCC)C(=O)N[C@@H]([C@@H](C)CC)C(=O)N3CCC[C@H]3C(=O)N(C)[C@H]3C/C=C\CCN(C3=O)[C@@H](Cc3ccc(C(F)(F)F)cc3)C(=O)N(C)CC(=O)N[C@@H](CCc3ccc(C(F)(F)F)c(OC)c3)C(=O)N2C1 [PP3413]	0.73 nM	23.8 nM	AA (a compound having 20 or more is denoted as AA)	A (a compound having 10 or more and less than 20 is denoted as A)
CCCO[C@@H]1C[C@H]2C(=O)NC3(CC(C)(C)C3)C(=O)N(C)[C@@H](C3CCCC3)C(=O)N(C)[C@H](C(=O)N(C)CC)CC(=O)N(C)[C@@H](COCC)C(=O)N[C@@H]([C@@H](C)CC)C(=O)N3C[C@@H](C)C[C@H]3C(=O)N(C)[C@H]3C/C=C\CCN(C3=O)[C@@H](Cc3ccc(C(F)(F)F)cc3)C(=O)N(C)CC(=O)N[C@@H](CCc3ccc(C(F)(F)F)c(OC)c3)C(=O)N2C1 [PP3415]	2.5 nM	47.5 nM	A (a compound having 10 or more and less than 20 is denoted as A)	A (a compound having 10 or more and less than 20 is denoted as A)
CCC[C@H]1C(=O)N[C@@H]([C@@H](C)CC)C(=O)N(C)CC(=O)N(C)[C@H]2C/C=C\CCN(C2=O)[C@@H](Cc2ccc(C(F)(F)F)cc2)C(=O)N(C)CC(=O)N[C@@H](CCc2ccc(C(F)(F)F)c(Cl)c2)C(=O)N2CC3(CC3)C[C@H]2C(=O)NC2(CCC2)C(=O)N(C)[C@@H]([C@@H](C)CC)C(=O)N(C)[C@H](C(=O)N(C)C)CC(=O)N1C [PP3416]	0.25 nM	12.9 nM	AA (a compound having 20 or more is denoted as AA)	A (a compound having 10 or more and less than 20 is denoted as A)
CCCO[C@@H]1C[C@H]2C(=O)NC3(CC(C)(C)C3)C(=O)N(C)[C@@H](C3CCCC3)C(=O)N(C)[C@H](C(=O)N(C)CC)CC(=O)N(C)[C@@H](COCC)C(=O)N[C@@H]([C@@H](C)CC)C(=O)N3C[C@@H](F)C[C@H]3C(=O)N(C)[C@H]3C/C=C\CCN(C3=O)[C@@H](Cc3ccc(C(F)(F)F)cc3)C(=O)N(C)CC(=O)N[C@@H](CCc3ccc(C(F)(F)F)c(OC)c3)C(=O)N2C1 [PP3417]	0.36 nM	13 nM	A (a compound having 10 or more and less than 20 is denoted as A)	A (a compound having 10 or more and less than 20 is denoted as A)
CCC[C@H]1C(=O)N[C@@H]([C@@H](C)CC)C(=O)N(C)CC(=O)N(C)[C@H]2C/C=C\CCN(C2=O)[C@@H](Cc2ccc(C(F)(F)F)cc2)C(=O)N(C)CC(=O)N[C@@H](CCc2ccc(C(F)(F)F)c(Cl)c2)C(=O)N2CC3(CC3)C[C@H]2C(=O)NC2(CCC2)C(=O)N(C)[C@@H](CC(C)(C)C)C(=O)N(C)[C@H](C(=O)N(C)C)CC(=O)N1C [PP3418]	0.041 nM	5.4 nM	A (a compound having 10 or more and less than 20 is denoted as A)	B (a compound having 3 or more and less than 10 is denoted as B)
CCCO[C@@H]1C[C@H]2C(=O)NC3(CC(C)(C)C3)C(=O)N(C)[C@@H](C3CCCC3)C(=O)N(C)[C@H](C(=O)N(C)CC)CC(=O)N(C)[C@@H](COCC)C(=O)N[C@@H]([C@@H](C)CC)C(=O)N(C)CC(=O)N(C)[C@H]3C/C=C\CCN(C3=O)[C@@H](Cc3ccc(C)cc3)C(=O)N(C)CC(=O)N[C@@H](CCc3cc(F)c(C(F)(F)F)c(F)c3)C(=O)N2C1 [PP3419]	0.15 nM	12.1 nM	A (a compound having 10 or more and less than 20 is denoted as A)	A (a compound having 10 or more and less than 20 is denoted as A)
CCC[C@H]1C(=O)N[C@@H]([C@@H](C)CC)C(=O)N(C)CC(=O)N(C)[C@H]2C/C=C\CCN(C2=O)[C@@H](Cc2ccc(C)cc2)C(=O)N(C)CC(=O)N[C@@H](CCc2cc(F)c(C(F)(F)F)c(F)c2)C(=O)N2CC3(CC3)C[C@H]2C(=O)NC2(CCC2)C(=O)N(C)[C@@H](C(CC)CC)C(=O)N(C)[C@H](C(=O)N(C)C)CC(=O)N1C [PP3420]	0.42 nM	13.2 nM	AA (a compound having 20 or more is denoted as AA)	A (a compound having 10 or more and less than 20 is denoted as A)
CCCO[C@@H]1C[C@H]2C(=O)NC3(CC(C)(C)C3)C(=O)N(C)[C@@H](C3CCCC3)C(=O)N(C)[C@H](C(=O)N(C)CC)CC(=O)N[C@@H](COCC)C(=O)N[C@@H]([C@@H](C)CC)C(=O)N(C3CC3)CC(=O)N(C)[C@H]3C/C=C\CCN(C3=O)[C@@H](Cc3ccc(C)cc3)C(=O)N(C)CC(=O)N[C@@H](CCc3cc(F)c(C(F)(F)F)c(F)c3)C(=O)N2C1 [PP3421]	1.9 nM	67 nM	A (a compound having 10 or more and less than 20 is denoted as A)	A (a compound having 10 or more and less than 20 is denoted as A)
CCC[C@H]1C(=O)N[C@@H]([C@@H](C)CC)C(=O)N(C)CC(=O)N(C)[C@H]2C/C=C\CCN(C2=O)[C@@H](Cc2ccc(C)cc2)C(=O)N(C)CC(=O)N[C@@H](CCc2ccc(C(F)(F)F)c(OC)c2)C(=O)N2CC3(CC3)C[C@H]2C(=O)NC2(CCC2)C(=O)N(C)[C@@H](C(CC)CC)C(=O)N(C)[C@H](C(=O)N(C)C)CC(=O)N1C [PP3422]	0.39 nM	8.4 nM	AA (a compound having 20 or more is denoted as AA)	A (a compound having 10 or more and less than 20 is denoted as A)
CCCO[C@@H]1C[C@H]2C(=O)NC3(CC(C)(C)C3)C(=O)N(C)[C@@H](C3CCCC3)C(=O)N(C)[C@H](C(=O)N(C)CC)CC(=O)N[C@@H](COCC)C(=O)N[C@@H]([C@@H](C)CC)C(=O)N3CCC[C@H]3C(=O)N(C)[C@H]3C/C=C\CCN(C3=O)[C@@H](Cc3ccc(C)cc3)C(=O)N(C)CC(=O)N[C@@H](CCc3cc(F)c(C(F)(F)F)c(F)c3)C(=O)N2C1 [PP3423]	1.8 nM	81.2 nM	A (a compound having 10 or more and less than 20 is denoted as A)	A (a compound having 10 or more and less than 20 is denoted as A)
CCC[C@H]1C(=O)N[C@@H]([C@@H](C)CC)C(=O)N(C)CC(=O)N(C)[C@H]2C/C=C\CCN(C2=O)[C@@H](Cc2ccc(C)cc2)C(=O)N(C)CC(=O)N[C@@H](CCc2ccc(C(F)(F)F)c(Cl)c2)C(=O)N2CC3(CC3)C[C@H]2C(=O)NC2(CCC2)C(=O)N(C)[C@@H](C(CC)CC)C(=O)N(C)[C@H](C(=O)N(C)C)CC(=O)N1C [PP3424]	0.48 nM	27.2 nM	AA (a compound having 20 or more is denoted as AA)	A (a compound having 10 or more and less than 20 is denoted as A)
CCC[C@H]1C(=O)N[C@@H]([C@@H](C)CC)C(=O)N(C)CC(=O)N(C)[C@H]2C/C=C\CCN(C2=O)[C@@H](Cc2ccc(C)cc2)C(=O)N(C)CC(=O)N[C@@H](CCc2ccc(C(F)(F)F)c(Cl)c2)C(=O)N2CC3(CC3)C[C@H]2C(=O)NC2(CCC2)C(=O)N(C)[C@@H]([C@@H](C)CC)C(=O)N(C)[C@H](C(=O)N(C)C)CC(=O)N1C [PP3426]	0.36 nM	17.2 nM	A (a compound having 10 or more and less than 20 is denoted as A)	A (a compound having 10 or more and less than 20 is denoted as A)
CCC[C@H]1C(=O)N[C@@H](C2CCCC2)C(=O)N(C)CC(=O)N(C)[C@H]2C/C=C\CCN(C2=O)[C@@H](Cc2ccc(C)cc2)C(=O)N(C)CC(=O)N[C@@H](CCc2cc(F)c(C(F)(F)F)c(F)c2)C(=O)N2CC3(CC3)C[C@H]2C(=O)NC2(CCC2)C(=O)N(C)[C@@H](C(CC)CC)C(=O)N(C)[C@H](C(=O)N(C)C)CC(=O)N1C [PP3428]	0.77 nM	18.7 nM	A (a compound having 10 or more and less than 20 is denoted as A)	A (a compound having 10 or more and less than 20 is denoted as A)
CCCO[C@@H]1C[C@H]2C(=O)NC3(CC(C)(C)C3)C(=O)N(C)[C@@H](C3CCCC3)C(=O)N(C)[C@H](C(=O)N(C)CC)CC(=O)N[C@@H](COCC)C(=O)N[C@@H]([C@@H](C)CC)C(=O)N(C3CC3)CC(=O)N(C)[C@H]3C/C=C\CCN(C3=O)[C@@H](Cc3ccc(C)cc3)C(=O)N(C)CC(=O)N[C@@H](CCc3ccc(C(F)(F)F)c(Cl)c3)C(=O)N2C1 [PP3429]	2.5 nM	78.6 nM	A (a compound having 10 or more and less than 20 is denoted as A)	A (a compound having 10 or more and less than 20 is denoted as A)
CCC[C@H]1C(=O)N[C@@H](C2CCCC2)C(=O)N(C)CC(=O)N(C)[C@H]2C/C=C\CCN(C2=O)[C@@H](Cc2ccc(C)cc2)C(=O)N(C)CC(=O)N[C@@H](CCc2ccc(C(F)(F)F)c(OC)c2)C(=O)N2CC3(CC3)C[C@H]2C(=O)NC2(CCC2)C(=O)N(C)[C@@H](C(CC)CC)C(=O)N(C)[C@H](C(=O)N(C)C)CC(=O)N1C [PP3430]	0.7 nM	29.8 nM	AA (a compound having 20 or more is denoted as AA)	A (a compound having 10 or more and less than 20 is denoted as A)
CCCO[C@@H]1C[C@H]2C(=O)NC3(CC(C)(C)C3)C(=O)N(C)[C@@H](C3CCCC3)C(=O)N(C)[C@H](C(=O)N(C)CC)CC(=O)N[C@@H](COCC)C(=O)N[C@@H]([C@@H](C)CC)C(=O)N3CCC[C@H]3C(=O)N(C)[C@H]3C/C=C\CCN(C3=O)[C@@H](Cc3ccc(C)cc3)C(=O)N(C)CC(=O)N[C@@H](CCc3ccc(C(F)(F)F)c(Cl)c3)C(=O)N2C1 [PP3431]	3 nM	79.5 nM	A (a compound having 10 or more and less than 20 is denoted as A)	A (a compound having 10 or more and less than 20 is denoted as A)
